Reference: patent EP4613273A1, “TREATMENT OF BONE LOSS” (priority 2024, dated 2025)
Where a name gives a salt, the structure may show the parent alone.

Test: Tolerance, hematology, biochemistry and calcium during 90-day treatment in dogs with periodontal disease
Format: in vivo
Parameters: Platelet: unit not given here
Conditions: for Alanine transferase / Albumin / Albumin/Globulin ratio / Alkalin phosphatase / BUN/Creatinine ratio / Basophil / Creatinine / Eosinophil / Globulin / Glucose / HCT / HGB / Lymphocyte / MCH / MCHC / MCV / Monocyte / Neutrophil / Platelet / RBC / Reticulocyte / Total calcium / Total protein / Urea: mean
Experimental: The present study was performed on 10 Beagle dogs suffering from alveolar bone loss induced by spontaneously developed periodontal disease. All dogs were treated with MIV-701 besylate salt for minimum 30 day and maximum 90 days, depending on the tolerance at intermediate visits. The product is administrated to the dog by its owner at home, once a day with a meal.
There were two treatment groups: • Group A (5 dogs) with a dose of 25 mg/kg. • Group B (5 dogs) with a dose of 50 mg/kg.
Treatment was administrated for 90 days. Every 30 days, based on the results of clinical exam, blood parameters and potential occurrence of adverse events suspected to be drug-related, the treatment prolongation for another 30 days, or discontinuation of treatment was decided by the Investigator.
Whole blood sample for hematology analysis was collected at visit V1 (between Day -7 and Day 0), visit V3 (Day 30+3 days), Visit V4 (Day 60t 3 days) and Visit V5 (Day 90t 3 days).
The result from visit V1 (between Day -7 and Day 0) was used as a baseline value for the safety evaluation criteria.
Each time 1 ml of the peripheral whole blood was collected on a tube with anti-coagulant (EDTA) and gently inverted several times. A complete blood count: WBC with details of lymphocytes, monocytes and polynuclear cells (neutrophils, eosinophils and basophils); Red blood cells (RBC); Hematocrit (HCT); Hemoglobin (HGB); Reticulocytes (RETIC); Mean corpuscular volume (MCV); Mean Corpuscular Hemoglobin (MCH); Mean Corpuscular Hemoglobin Concentration (MCHC); platelets count (PLT) was performed.
Whole blood sample for biochemistry analysis was collected at visit V1 (between Day -7 and Day 0), visit V3 (Day 30+3 days), Visit V4 (Day 60t 3 days) and Visit V5 (Day 90t 3 days).
Each time 1.3 ml of the peripheral whole blood was collected on lithium heparin tube and gently inverted several times. Next, sample was centrifuged at 2500 G for 5 minutes at room temperature and heparin plasma will be collected. The following biochemical parameters: Albumin, Alanine transaminase (ALT), Alkaline phosphatase (ALP), creatinine, globulins, glucose, Total proteins, Urea, Albumin/globulin ratio and urea/creatinine ratio were analyzed.

[1] = dogs with periodontal disease, 90-day treatment
[2] = Day 30, 25 or 50 mg/kg/day oral
[3] = Day 60, 25 or 50 mg/kg/day oral
[4] = Day 90, all dogs 50 mg/kg/day for last 30 days

For CC(C)C[C@H](NC(=O)c1ccc(-c2csc(N3CCN(C)CC3)n2)cc1)C(=O)N1C[C@H](F)[C@H]2OCC(O)(O)[C@H]21 [MIV-701 besylate salt, N-[(S)-1-((3aS,6S,6aS)-6-Fluoro-S-oxo-hexahydro-furo[3,2-b]pyrrole-4-carbony)-3-methyl-butyl]-4-[2-(4-methyl-piperazin-1-yl)-thiazol-4-yl]-benzamide benzenesulphonate], the “death and Serious Adverse Event (SAE)” value [1] was “No death and no Serious Adverse Event (SAE)”, the “evolution of blood cell count and clinical biochemistry parameters” value [1] was “No safety concern” and the tolerance (dogs with periodontal disease, once-a-day 25 and 50 mg/kg/day, 90-day treatment period) was “well tolerated”. The Alanine transferase [2] was 37,9 U/L, the Albumin [2] was 26,3 g/L and the Albumin/Globulin ratio [2] was 0,61. The Alkalin phosphatase [2] was 31,5 U/L, the BUN/Creatinine ratio [2] was 17,8 and the Basophil [2] was 0,03 10^9/L. The Creatinine [2] was 57,8 µmol/L, the Eosinophil [2] was 1,3 10^9/L and the Globulin [2] was 43,6 g/L. For the same compound, the Glucose [2] was 5,3 mmol/L, the HCT [2] was 41,8% and the HGB [2] was 14,2 g/DL. For the same compound, the Lymphocyte [2] was 1,7 10^9/L, the MCH [2] was 21,5 pg and the MCHC [2] was 33,9 g/DL. For the same compound, the MCV [2] was 63,5 fL, the Monocyte [2] was 0,8 10^9/L and the Neutrophil [2] was 7,7 10^9/L. The Platelet [2] was 381,3, the RBC [2] was 6,6 10^12/L and the Reticulocyte [2] was 32,0 K/µL. The Total calcium [2] was 2,4 mmol/L, the Total protein [2] was 7,0 g/dL and the Urea [2] was 4,0 mmol/L. For the same compound, the Alanine transferase [3] was 41,7 U/L, the Albumin [3] was 26,9 g/L and the Albumin/Globulin ratio [3] was 0,65. For the same compound, the Alkalin phosphatase [3] was 31,6 U/L, the BUN/Creatinine ratio [3] was 21,7 and the Basophil [3] was 0,03 10^9/L. The Creatinine [3] was 62,7 µmol/L, the Eosinophil [3] was 1,2 10^9/L and the Globulin [3] was 40,6 g/L. For the same compound, the Glucose [3] was 5,7 mmol/L, the HCT [3] was 40,0% and the HGB [3] was 13,6 g/DL. The Lymphocyte [3] was 1,7 10^9/L, the MCH [3] was 21,8 pg and the MCHC [3] was 33,8 g/DL. For the same compound, the MCV [3] was 64,6 fL, the Monocyte [3] was 0,7 10^9/L and the Neutrophil [3] was 7,0 10^9/L. The Platelet [3] was 384,8, the RBC [3] was 6,2 10^12/L and the Reticulocyte [3] was 22,9 K/µL. The Total calcium [3] was 2,3 mmol/L, the Total protein [3] was 6,8 g/dL and the Urea [3] was 5,4 mmol/L. For the same compound, the Alanine transferase [4] was 36,8 U/L, the Albumin [4] was 28,3 g/L and the Albumin/Globulin ratio [4] was 0,65. The Alkalin phosphatase [4] was 45,4 U/L, the BUN/Creatinine ratio [4] was 22,8 and the Basophil [4] was 0,02 10^9/L. For the same compound, the Creatinine [4] was 60,2 µmol/L, the Eosinophil [4] was 1,2 10^9/L and the Globulin [4] was 43,0 g/L. The Glucose [4] was 5,7 mmol/L, the HCT [4] was 40,1% and the HGB [4] was 13,6 g/DL. For the same compound, the Lymphocyte [4] was 1,7 10^9/L, the MCH [4] was 22,2 pg and the MCHC [4] was 33,8 g/DL. The MCV [4] was 65,7 fL, the Monocyte [4] was 0,9 10^9/L and the Neutrophil [4] was 8,3 10^9/L. The Platelet [4] was 423,0, the RBC [4] was 6,2 10^12/L and the Reticulocyte [4] was 29.5 K/µL. For the same compound, the Total calcium [4] was 2,4 mmol/L, the Total protein [4] was 7,1 g/dL and the Urea [4] was 5,4 mmol/L. For the same compound, the “dogs with one episode of diarrhea of mild intensity for 2 days” value (of 10 dogs, spontaneously resolved under treatment) was 2 dogs.
